System: R223X stop codon in the mutated luciferase gene, ADXC8 luciferase reporter cell line
Assay: cells
Type: cell-based
Details: ADXC8 cells, 24 hours; for Emax / EC (100% of 200 uM G418 response): 24 h; for Emax: read-out: Fold Over Control, maximum fold response relative to 200 μM G418; for EC (100% of 200 uM G418 response): read-out: pC100%, negative logarithm of the concentration giving the same response as 200 μM G418
Protocol: The read-through activity of compounds was assessed using the ADXC8 luciferase reporter cell line (generated as described in McElroy et al. PLoS Biology (2013), 11, e1001593). […] The amount of luciferase is measured by adding a lysis buffer containing luciferin substrate and detecting luminescence using the following protocol:
ADXC8 cells in assay media (DMEM+10% FBS) were seeded into 96-well tissue culture treated white plates (Greiner) to a density of 13,000 cells per well and incubated for 24 hours at 37° C. in an atmosphere of 5% CO2. […] Plates were incubated for a further 24 hours at 37° C. in an atmosphere of 5% CO2. Cells treated with 200 μM G418 (with 1% DMSO) were used as a positive control.
Cell viability and firefly luciferase activity were measured in the same assay wells. CellTiter-Fluor™ reagent was prepared as per manufacturer's instructions (Promega E7120) and 20 μl of 5× CellTiter-Fluor™ reagent was added to all wells, briefly mixed by orbital shaking (300-500 rpm for −30 seconds) and the plates incubated for 30-45 minutes at 37° C. in an atmosphere of 5% C02. Cell viability was measured by monitoring fluorescence on a CLARIOstar® plate reader (BMG Labtech). Cells containing 1% DMSO were used as a positive control and cells with 400 μM Doxorubicin were used as negative control to define 100 and 0% respectively. ONE-Glo™ luciferase assay buffer (Promega E7120) was prepared according to manufacturer's instructions and 100 μl of luciferase reagent was added to each well and the plate incubated at RT for 3 mins before measuring the luminescence on the CLARIOstar® plate reader (BMG Labtech). Cells treated with 200 μM G418 (with 1% DMSO) were used as a positive control and arbitrarily assigned a value of 100%. Cells treated with 1% DMSO were used as the negative control to define 0% response.
Concentration effect curves were analysed using non-linear regression using the CDD Vault from Collaborative Drug Discovery (Burlingame, CA). […] The bottom and top of the curves were constrained to 0 and the maximum measured response respectively. From the fitted curves, the software derived C100% values (the concentration giving the same response as 200 μM G418) for each compound. The negative logarithm of C100% is reported as pC100% (Table 1). In addition to pC100% values, the maximum fold response relative to 200 μM G418 (Fold over Control) was also captured (Table 1). A pC100% categorisation of ‘-’ in Table 1 represents examples in which a pC100% response was not reached when assayed at a concentration of 100 μM. A pC100% categorisation of ‘*’ in Table 1 represents examples in which a pC100% response was not reached when assayed at a concentration of 30 μM.

| Compound | Emax [%] | EC (100% of 200 uM G418 response) [µM] | Fold Over Control (maximum fold response relative to 200 μM G418) | pC100% (negative logarithm of the concentration giving the same response as 200 μM G418) |
| --- | --- | --- | --- | --- |
| CNc1nc(N[C@H]2CNC[C@H]2OC)nc2nc(C)cc(C)c12 [Example 370] | 100 to 3000 | 1 to 10 |  |  |
| Cc1cc(C)c2c(N)nc(NC3COC4(CNC4)C3)nc2n1 (stereo not drawn) [Example 210] | 100 to 3000 | 1 to 10 |  |  |
| CN1CCC(Nc2nc(N)c3ccc(-c4cccc(S(C)(=O)=O)c4)nc3n2)CC1 [Example 97] |  | 10 to 100 |  |  |
| Cc1ccc(O)c(CN2CCC(Nc3nc(N)c4c(C)cc(C)nc4n3)CC2)c1 [Example 548] | 100 to 3000 | 0.1 to 1 |  |  |
| Cc1cc(C)c2c(N)nc(NC3(CO)CCNCC3)nc2n1 [Example 207] | 0 to 100 | > 31.6 |  |  |
| Cc1cc(C)c2c(N)nc(N[C@H]3CCN(Cc4ccc(C#N)cc4)C[C@@H]3F)nc2n1 [Example 574] | 100 to 3000 | 10 to 100 |  |  |
| Cc1cc(C)c2c(N)nc(N[C@H]3CN4CCC3CC4)nc2n1 [Example 198] | 0 to 100 | > 31.6 |  |  |
| Cc1cc(C)c2c(N)nc(N[C@@H]3CCCC[C@H]3N(C)C)nc2n1 [Example 181] | 0 to 100 | > 31.6 |  |  |
| Cc1cc(C)c2c(N)nc(NCCC3CCCN(C)C3)nc2n1 (stereo not drawn) [Example 159] |  | 1 to 10 |  |  |
| COCc1cccc(CN2CCC(Nc3nc(N)c4c(C)cc(C)nc4n3)CC2)c1 [Example 464] | 100 to 3000 | 10 to 100 |  |  |
| Cc1c2c(nc3nc(NC4CCN(Cc5ccc(C#N)cc5F)CC4)nc(N)c13)CCC2 [Example 649] | 100 to 3000 | 1 to 10 |  |  |
| Cc1cc(C)c2c(NCCn3ccnc3)nc(NC3CCN(C)CC3)nc2n1 [Example 316] | 0 to 100 | > 31.6 |  |  |
| CNc1nc(NC2CCN(C)CC2)nc2ncccc12 [Example 39, N^4-methyl-N^2-(1-methylpiperidin-4-yl)pyrido[2,3-d]pyrimidine-2,4-diamine] | 100 to 3000 | 10 to 100 |  |  |
| COc1ccc(CNc2ccnc3nc(NC4CCN(C)CC4)nc(N)c23)cc1 [Example 298] | 0 to 100 | > 100 |  |  |
| CNc1nc(N[C@@H]2C[C@H](O)CN(C)C2)nc2nc(C)cc(C)c12 [Example 603] | 100 to 3000 | 1 to 10 |  |  |
| CNc1nc(N[C@H]2CNC[C@@H]2O)nc2nc3c(c(C)c12)CCC3 [Example 341] | 100 to 3000 | 0.01 to 0.1 |  |  |
| Cc1cc(C)c2c(N)nc(NCCCN3CC4(COC4)C3)nc2n1 [Example 29, N^2-(3-(2-oxa-6-azaspiro[3.3]heptan-6-yl)propyl)-5,7-dimethylpyrido[2,3-d]pyrimidine-2,4-diamine] | 100 to 3000 | 10 to 100 |  |  |
| Cc1cc(C)c2c(N)nc(NC3CC4(CCN(C(=O)OC(C)(C)C)CC4)C3)nc2n1 [Example 132] | 0 to 100 | > 100 |  |  |
| Cc1cc(C)c2c(NC3CC3)nc(N[C@@H]3CCNC3)nc2n1 [Example 332] | 100 to 3000 | 1 to 10 |  |  |
| CNC(=O)CCNc1nc(NC2CCN(C)CC2)nc2nc(C)cc(C)c12 [Example 353] | 0 to 100 | > 31.6 |  |  |
| Cc1c2c(nc3nc(NC4CCN(Cc5cccc(C(=O)O)c5)CC4)nc(N)c13)CCC2 [Example 674] | 0 to 100 | > 31.6 |  |  |
| CNc1nc(N[C@@H]2CN(C)C[C@H]2C)nc2nc(C)cc(C)c12 [Example 378] | 100 to 3000 | 1 to 10 |  |  |
| CNc1nc(N[C@H]2CN[C@H](C)C2)nc2nc(C)cc(C)c12 [Example 376] |  | 0.1 to 1 |  |  |
| Cc1cc(C)c2c(N)nc(NC3CN(C)C3)nc2n1 [Example 153] | 0 to 100 | > 31.6 |  |  |
| CN1CCC(Nc2nc(N)c3ccc(-c4cccc(S(N)(=O)=O)c4)nc3n2)CC1 [Example 55] | 100 to 3000 | 10 to 100 |  |  |
| Cc1cc(C)c2c(N)nc(NC3CCN(Cc4ccccc4S(C)(=O)=O)CC3)nc2n1 [Example 498] | 0 to 100 | > 31.6 |  |  |

| Compound | Emax [%] | EC (100% of 200 uM G418 response) [µM] | Fold Over Control (maximum fold response relative to 200 μM G418) | pC100% (negative logarithm of the concentration giving the same response as 200 μM G418) |
| --- | --- | --- | --- | --- |
| CNC(=O)c1cccc(CN2CCC(Nc3nc(N)c4c(C)cc(C)nc4n3)CC2)c1 [Example 477] | 100 to 3000 | 10 to 100 |  |  |
| Cc1cc(C)c2c(N)nc(NC3CCN(Cc4c(C)cccc4O)CC3)nc2n1 [Example 538] | 100 to 3000 | 0.1 to 1 |  |  |
| CN1CCC(Nc2nc(N)c3cc(-c4cn(C)cn4)cnc3n2)CC1 [Example 644] | 0 to 100 | > 100 |  |  |
| CC(=O)c1ccnc2nc(NC3CCN(C)CC3)nc(N)c12 [Example 309] | 0 to 100 | > 100 |  |  |
| Cc1cc(C)c2c(N)nc(NC3(C)CNC3)nc2n1 [Example 222] | 0 to 100 | > 31.6 |  |  |
| CNc1nc(N[C@H]2CN(Cc3ccccc3)C[C@H]2F)nc2nc(C)cc(C)c12 [Example 621] | 100 to 3000 | 10 to 100 |  |  |
| CNc1nc(NC2CNCC2C#N)nc2nc(C)cc(C)c12 (single isomer, unassigned) [Example 451] |  |  | # (Fold over Ctrl ≥ 0 ≤ 1) | * (pC100 ≤ 4.5) |
| Cc1cc(C)c2c(N)nc(NC3CCN(Cc4ccccc4)CC3(F)F)nc2n1 (stereo not drawn) [Example 639] | 0 to 100 | > 31.6 |  |  |
| CNc1cc(N[C@H]2CNC[C@H]2O)nc2nc3c(c(C)c12)CCC3 [Example 618] |  | 1 to 10 |  |  |
| CNc1nc(NC2CCN(Cc3ccccc3)CC2)nc2nc3c(c(C)c12)CCC3 [Example 605] | 100 to 3000 | 0.1 to 1 |  |  |
| CNc1nc(N[C@@H]2CCN(C)C2)nc2nc(C)cc(OC)c12 [Example 631] | 100 to 3000 | 1 to 10 |  |  |
| CN1CCC(Nc2nc(N)c3ccc(C#N)nc3n2)CC1 [Example 282] | 0 to 100 | > 31.6 |  |  |
| Cc1cc(C)c2c(N)nc(NC3CCN(Cc4cc[nH]n4)CC3)nc2n1 [Example 469] | 100 to 3000 | 10 to 100 |  |  |
| Cc1cc(C)c2c(NC(C)C)nc(N[C@@H]3CCNC3)nc2n1 [Example 323] | 100 to 3000 | 1 to 10 |  |  |
| Cc1cc(C)c2c(N)nc(NC3CCN(Cc4cccc(CO)c4)CC3)nc2n1 [Example 482] | 100 to 3000 | 10 to 100 |  |  |
| CNc1nc(N[C@H]2CCCN(C)C2)nc2nc(C)cc(C)c12 [Example 384] | 100 to 3000 | 1 to 10 |  |  |
| Cc1cc(C)c2c(N)nc(NC3CCN(Cc4cn[nH]c4)CC3)nc2n1 [Example 572] | 100 to 3000 | 1 to 10 |  |  |
| CN1CCC(Nc2nc(N)c3cc(-c4cncs4)cnc3n2)CC1 [Example 647] | 100 to 3000 | 10 to 100 |  |  |
| Cc1cc(C)c2c(N)nc(NCCNCC(F)(F)F)nc2n1 [Example 162] | 0 to 100 | > 31.6 |  |  |
| Cc1cc(C)c2c(N)nc(NC3CCCNCC3)nc2n1 (stereo not drawn) [Example 140, A2-(azepan-4-yl)-5,7-dimethylpyrido[2,3-d]pyrimidine-2,4-diamine] | 100 to 3000 | 1 to 10 |  |  |
| Cc1cc(C)c2c(N)nc(NC3CCN(Cc4ccns4)CC3)nc2n1 [Example 467] | 100 to 3000 | 1 to 10 |  |  |
| Cc1cc(C)c2c(N)nc(NC3CCN(Cc4ccc(C(=O)N(C)C)cc4)CC3)nc2n1 [Example 495] | 0 to 100 | > 31.6 |  |  |
| CN1CCC(Nc2nc(N)c3cc(-c4cncn4C)cnc3n2)CC1 [Example 643] | 0 to 100 | > 100 |  |  |
| CN1CCC(Nc2nc(N)c3ccc(-c4ccc(F)c(F)c4)nc3n2)CC1 [Example 108] |  | 1 to 10 |  |  |
| Cc1cc(C)c2c(N)nc(NCC3CCCCN3C)nc2n1 (stereo not drawn) [Example 144] | 100 to 3000 | 1 to 10 |  |  |
| Cc1cc(C)c2c(N)nc(NC3CCN(Cc4ccc(C(F)(F)F)cc4)CC3)nc2n1 [Example 456] | 100 to 3000 | 1 to 10 |  |  |

Reference: patent US20260234144A1 (TAY THERAPEUTICS LIMITED, priority 2023, published 2026)
